Source: US9902739B2, “Small molecule inhibitors of G protein coupled receptor 6 kinases polypeptides” (Mayo Foundation for Medical Education and Research, priority 2014, dated 2018)

Molecular target: T1, GRK6, recombinant full-length GST-tagged human protein (Homo sapiens, UniProt P43250)
T1 construct: Enzyme: 20 nM GRK6, recombinant full-length GST-tagged human protein; GST
Test: GRK6 assay, IC50 determination (8-point concentration-response)
Format: biochemical
Description: The following assay conditions were used.
Buffer: 50 mM TRIS-HCl, pH 7.5, 5 mM MgCl2, 2 mM DTT, 0.01% Triton X-100, 10 μM Na3VO4, 10 μM b-GP, 1% DMSO
Enzyme: 20 nM GRK6, recombinant full-length GST-tagged human protein
Peptide substrate (Peptide 216): 1 μM
One hundred two compounds (1-1-1-102) were further characterized by determining IC50 values in a GRK6 assay. This screen has been previously described in WO 2013/063458, which is incorporated by reference in its entirety herein. Briefly, the following activities were performed: 8-point concentration-response determinations in singlicate wells (top concentration=60 μM, 3-fold dilution steps); Repeat tests for QC failed or inconclusive compounds; and Repeat tests (titrate down) for compounds with >50% inhibition at all tested concentrations.
Twelve compounds (2-1-2-12) were further characterized by determining the IC50 values in a GRK6 assay. This screen has been previously described in WO 2013/063458, which is incorporated by reference in its entirety herein. Specific activities were performed as described above (Example 18).
Thirty-six compounds (3-1-3-36) were further characterized by determining the IC50 values in a GRK6 assay. This screen has been previously described in WO 2013/063458, which is incorporated by reference in its entirety herein. Specific activities were performed as described above (Example 18).
Fifty-four compounds (4-1-4-54) were further characterized by determining the IC50 values in a GRK6 assay. This screen has been previously described in WO 2013/063458, which is incorporated by reference in its entirety herein. Specific activities were performed as described above (Example 18).

[1] = Series 3 (Table 13), conditions as Example 18
[2] = Series 1 (Table 11), 20 nM GRK6, ATP 12 μM (Km), Peptide 216 1 μM, incubation 7 h
[3] = Series 4 (Table 14), conditions as Example 18
[4] = Series 2 (Table 12), conditions as Example 18

T1 sequence (P43250 whole entry): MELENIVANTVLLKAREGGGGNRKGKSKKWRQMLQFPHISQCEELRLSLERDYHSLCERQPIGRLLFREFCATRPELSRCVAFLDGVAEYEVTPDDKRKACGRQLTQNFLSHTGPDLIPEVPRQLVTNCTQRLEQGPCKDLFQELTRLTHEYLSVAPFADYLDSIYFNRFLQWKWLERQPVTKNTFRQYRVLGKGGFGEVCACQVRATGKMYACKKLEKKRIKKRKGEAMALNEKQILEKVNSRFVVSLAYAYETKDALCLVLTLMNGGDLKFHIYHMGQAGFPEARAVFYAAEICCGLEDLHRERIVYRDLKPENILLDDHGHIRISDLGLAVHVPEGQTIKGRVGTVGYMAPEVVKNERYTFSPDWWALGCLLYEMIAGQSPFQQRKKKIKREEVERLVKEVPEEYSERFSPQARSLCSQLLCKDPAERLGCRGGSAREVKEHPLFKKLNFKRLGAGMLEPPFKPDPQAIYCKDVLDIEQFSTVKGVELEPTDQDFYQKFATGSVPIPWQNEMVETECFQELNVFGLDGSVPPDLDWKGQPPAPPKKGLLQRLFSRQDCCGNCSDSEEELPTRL

| Compound | IC50 [2] | IC50 [3] | other results |
| --- | --- | --- | --- |
| c1cnc2ccc(-c3ccc(-c4nnc(SCc5nnn[nH]5)[nH]4)o3)cc2c1 [Compound 3-3] |  |  | IC50 [1]: 0.667 µM |
| c1ccc(-c2ccc(-c3nnc(SCc4nnn[nH]4)[nH]3)o2)cc1 [Compound 3-28] |  |  | IC50 [1]: 6.21 µM |
| CS(=O)(=O)Nc1cccc(-c2ccc(-c3nnc(SCc4nnn[nH]4)[nH]3)o2)c1 [Compound 3-25] |  |  | IC50 [1]: 4.66 µM |
| N#Cc1ccc2[nH]c(-c3ccc(-c4nnc(SCC(=O)O)[nH]4)o3)cc2c1 [Compound 1-18] | 0.25 µM |  |  |
| O=C(O)CSc1nnc(-c2cc3ccccc3o2)[nH]1 [Compound 1-86] | 1.57 µM |  |  |
| O=C(O)CSc1nnc(-c2ccc(-c3cc(Cl)cc(OCc4ccccc4)c3)o2)[nH]1 [Compound 1-20] | 0.26 µM |  |  |
| Cn1cc(Cl)c(-c2nnc(SCC(=O)O)[nH]2)n1 [Compound 4-37] |  | 89.2 µM |  |
| CCOc1cccc(-c2ccc(-c3nnc(SCC(=O)O)[nH]3)o2)c1 [Compound 1-64] | 0.711 µM |  |  |
| COc1ccc2cc(-c3ccc(-c4cc(SCC(=O)O)n[nH]4)s3)ccc2c1 [Compound 2-6] |  |  | IC50 [4]: 0.721 µM |
| CC(C)Oc1cccc(-c2ccc(-c3nnc(SCC(=O)O)[nH]3)o2)c1 [Compound 1-67] | 0.737 µM |  |  |
| Cn1ncc(-c2nnc(SCC(=O)O)[nH]2)c1-c1ccccc1 [Compound 4-14] |  | 5.7 µM |  |
| Cc1nc(-c2nnc(SCC(=O)O)[nH]2)c[nH]1 [Compound 4-52] |  | > 100 µM |  |
| O=C(O)CSc1nnc(-c2ccc(Cl)cn2)[nH]1 [Compound 4-33] |  | 35.3 µM |  |
| Cn1nc(C(F)(F)F)cc1-c1ccc(-c2nnc(SCC(=O)O)[nH]2)s1 [Compound 4-18] |  | 7.41 µM |  |
| FC(F)(F)c1cc(-c2ccc(-c3nnc(SCc4nnn[nH]4)[nH]3)o2)ccc1Cl [Compound 3-19] |  |  | IC50 [1]: 3.57 µM |
| c1ccc(-c2cccc(-c3ccc(-c4nnc(SCc5nnn[nH]5)[nH]4)o3)c2)cc1 [Compound 3-5] |  |  | IC50 [1]: 0.9 µM |
| O=C(O)CSc1nnc(-c2cccnc2N2CCOCC2)[nH]1 [Compound 4-41] |  | > 100 µM |  |
| CCCOc1ccc(-c2ccc(-c3nnc(SCC(=O)O)[nH]3)o2)cc1Cl [Compound 1-27] | 0.309 µM |  |  |
| Cn1cc(-c2ccc(-c3nnc(SCC(=O)O)[nH]3)o2)cn1 [Compound 1-98] | 3.68 µM |  |  |
| O=C(O)CSc1nnc(-c2cc3ccccc3s2)[nH]1 [Compound 4-8] |  | 2.58 µM |  |
| COc1ccc(-c2nnc(SCC(=O)O)[nH]2)cn1 [Compound 4-26] |  | 13 µM |  |

| Compound | IC50 [2] | IC50 [3] | other results |
| --- | --- | --- | --- |
| COc1cc(-c2ccc(-c3nnc(SCC(=O)O)[nH]3)o2)ccc1OCc1ccccc1 [Compound 1-43] | 0.395 µM |  |  |
| O=c1[nH]c2ccc(-c3ccc(-c4nnc(SCc5nnn[nH]5)[nH]4)o3)cc2[nH]1 [Compound 3-10] |  |  | IC50 [1]: 1.51 µM |
| Nc1cc(-c2ccc(-c3nnc(SCC(=O)O)[nH]3)o2)ccn1 [Compound 1-92, 2-((5-(5-(2-aminopyridin-4-yl)furan-2-yl)-4H-1,2,4-triazol-3-yl)thio)acetic acid] | 2.17 µM |  |  |
| O=C(O)CSc1nnc(-c2ccc(-c3cc(Cl)ccc3F)o2)[nH]1 [Compound 1-28] | 0.311 µM |  |  |
| Cn1ccc2c(-c3ccc(-c4nnc(SCC(=O)O)[nH]4)o3)cccc21 [Compound 1-87] | 1.8 µM |  |  |
| COc1ccc(-c2ccc(-c3nnc(SCC(=O)O)[nH]3)o2)cn1 [Compound 1-88] | 1.82 µM |  |  |
| Cn1c(-c2nnc(SCC(=O)O)[nH]2)cc2ccccc21 [Compound 4-34] |  | 38.8 µM |  |
| O=C(O)CSc1nnc(-c2ccc(-c3cnc4ccccc4c3)o2)[nH]1 [Compound 1-15] | 0.234 µM |  |  |
| O=C(O)CSc1nnc(-c2ccc(-c3ccc[nH]3)o2)[nH]1 [Compound 1-80] | 1.21 µM |  |  |
| O=C(O)CSc1nnc(-c2csnn2)[nH]1 [Compound 4-28] |  | 22.3 µM |  |
| O=C(O)CSc1nnc(-c2ccc(-c3c[nH]c4ccccc34)o2)[nH]1 [Compound 1-55] | 0.563 µM |  |  |
| CO/N=C/c1cc(-c2ccc(-c3nnc(SCC(=O)O)[nH]3)o2)ccc1OC [Compound 1-71] | 0.875 µM |  |  |
| c1cncc(-c2ccc(-c3nnc(SCc4nnn[nH]4)[nH]3)o2)c1 [Compound 3-32] |  |  | IC50 [1]: 8.63 µM |
| O=C(O)CSc1nnc(-c2ccc(-c3cccc(OCc4ccc5ccccc5c4)c3)o2)[nH]1 [Compound 1-48] | 0.458 µM |  |  |
| C#Cc1ccc(-c2nnc(SCC(=O)O)[nH]2)o1 [Compound 1-93] | 2.3 µM |  |  |
| O=C(O)CSc1cc(-c2ccc(-c3ccc(Cl)c(Cl)c3)o2)[nH]n1 [Compound 2-3] |  |  | IC50 [4]: 0.475 µM |
| COc1ccc2cc(-c3oc(-c4nnc(SCC(=O)O)[nH]4)cc3-c3ccccc3)ccc2c1 [Compound 1-77] | 1.15 µM |  |  |
| Cn1c2ccccc2c2ccc(-c3ccc(-c4nnc(SCC(=O)O)[nH]4)o3)cc21 [Compound 1-12] | 0.189 µM |  |  |
| N#Cc1c[nH]c2cc(-c3ccc(-c4nnc(SCC(=O)O)[nH]4)o3)ccc12 [Compound 1-33] | 0.332 µM |  |  |
| O=C(O)CSc1nnc(-c2ccc(-c3ccc4ccccc4c3)s2)[nH]1 [Compound 4-10] |  | 2.98 µM |  |
| O=C(O)CSc1nnc(-c2ccc(-c3cccc(OCc4cccc(Cl)c4)c3)o2)[nH]1 [Compound 1-24] | 0.276 µM |  |  |

| Compound | IC50 [2] | IC50 [3] | other results |
| --- | --- | --- | --- |
| COc1cncc(-c2nnc(SCC(=O)O)[nH]2)c1 [Compound 4-24] |  | 12.9 µM |  |
| O=C(O)CSc1nnc(-c2ccc(Cn3c4ccccc4c4ccccc43)o2)[nH]1 [Compound 1-89] | 2.02 µM |  |  |
| Nc1ncc(-c2nnc(SCC(=O)O)[nH]2)cn1 [Compound 4-21] |  | 9.61 µM |  |
| Fc1ccc(-c2ccc(-c3nnc(SCc4nnn[nH]4)[nH]3)o2)cc1F [Compound 3-29] |  |  | IC50 [1]: 6.9 µM |
| O=C(O)CSc1nnc(-c2ccc(-c3ccccc3[N+](=O)[O-])o2)[nH]1 [Compound 1-95] | 3.18 µM |  |  |
| COc1cc(Cl)cc(-c2ccc(-c3nnc(SCC(=O)O)[nH]3)o2)c1 [Compound 1-8] | 0.17 µM |  |  |
| O=C(O)CSc1nnc(-c2ccc(-c3ccc4nccnc4c3)o2)[nH]1 [Compound 1-79] | 1.17 µM |  |  |
| O=C(O)CSc1nnc(-c2ccc(C(c3ccccc3)c3ccccc3)o2)[nH]1 [Compound 1-101] | 6.71 µM |  |  |
| Cc1c(-c2nnc(SCC(=O)O)[nH]2)cnn1C [Compound 4-38] |  | 95.4 µM |  |
| FC(F)(F)c1cc(-c2ccc(-c3nnc(SCc4nnn[nH]4)[nH]3)o2)cc2cccnc12 [Compound 3-4] |  |  | IC50 [1]: 0.881 µM |
| COC(=O)CSc1nnc(-c2ccc(C#Cc3ccc4ccccc4c3)o2)[nH]1 [Compound 1-102] | 8.25 µM |  |  |
| O=C(O)CSc1nnc(-c2ccc3cccnc3n2)[nH]1 [Compound 4-45] |  | > 86 µM |  |
| O=C(O)CSc1nnc(-c2ccc(C(F)(F)F)nc2)[nH]1 [Compound 4-48] |  | > 54 µM |  |
| O=C(O)CSc1nnc(-c2cnc(-c3ccccc3)s2)[nH]1 [Compound 4-11] |  | 3.64 µM |  |
| O=C(O)CSc1nnc(-c2ccc(-c3ccc(Cl)cc3)o2)[nH]1 [Compound 1-50] | 0.473 µM |  |  |
| O=C(O)CSc1nnc(-c2ccc(-c3ccc4cc(-c5ccccc5)[nH]c4c3)o2)[nH]1 [Compound 1-22] | 0.269 µM |  |  |
| Nc1cccc(-c2ccc(-c3nnc(SCC(=O)O)[nH]3)o2)c1 [Compound 1-83] | 1.41 µM |  |  |
| Cc1nc(-c2nnc(SCC(=O)O)[nH]2)c2ccccn12 [Compound 4-46] |  | > 80 µM |  |
| Cc1cc2cc(-c3ccc(-c4nnc(SCC(=O)O)[nH]4)o3)ccc2n1C [Compound 1-69] | 0.828 µM |  |  |
| O=C(O)CSc1nnc(-c2cncc(Br)c2)[nH]1 [Compound 4-12] |  | 4.11 µM |  |
| COc1cc(F)cc(-c2ccc(-c3nnc(SCc4nnn[nH]4)[nH]3)o2)c1 [Compound 3-17] |  |  | IC50 [1]: 2.86 µM |
